Tests used:
[1] = molecular target: T1, AlkB-Fe^++ (E. coli AlkB demethylase) (Escherichia coli, UniProt P05050); test: Ligand binding to AlkB-Fe++ confined inside ClyA-AS nanopore, single-channel ionic current recording; settings: for L2B ΔIRES % (ligand-induced current enhancement from L2) / mean duration (toff) of ligand-induced events / koff −60 mV / kon −60 mV: −60 mV; for L2B ΔIRES % (ligand-induced current enhancement from L2): 150 mM NaCl, 15 mM Tris HCl pH 8.0, 28° C.; for L2B ΔIRES % (ligand-induced current enhancement from L2) / mean duration (toff) of ligand-induced events: ligand cis; for koff −60 mV / kon −60 mV: pH 8.0, 28° C.; for kon −60 mV: slope of event frequency vs concentration
T1 construct: made in house; host or cells: E. cloni EXPRESS BL21(DE3) E. coli
T1 sequence (P05050 with tags, fused parts or gaps): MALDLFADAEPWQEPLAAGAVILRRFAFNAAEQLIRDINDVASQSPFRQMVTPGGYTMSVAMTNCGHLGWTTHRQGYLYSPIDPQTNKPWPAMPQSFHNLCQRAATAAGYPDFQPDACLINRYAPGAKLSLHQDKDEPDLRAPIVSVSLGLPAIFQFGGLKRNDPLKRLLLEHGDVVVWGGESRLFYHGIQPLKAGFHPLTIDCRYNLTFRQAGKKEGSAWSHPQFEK
Method: (§1) The applied potential refers to the potential of the trans electrode. ClyA-AS nanopores were inserted into lipid bilayers from the cis compartment, which was connected to the ground electrode. The two compartments were separated by a 25 μm thick polytetrafluoroethylene film (Goodfellow Cambridge Limited) containing an orifice of ˜100 μm in diameter. The aperture was pretreated with ˜5 μl of 10% hexadecane in pentane and a bilayer was formed by the addition of ˜10 μL of 1,2-diphytanoyl-sn-glycero-3-phosphocholine (DPhPC) in pentane (10 mg/mL) to both electrophysiology chambers. Typically, the addition of 0.01-0.1 ng of oligomeric ClyA-AS to the cis compartment (0.5 mL) was sufficient to obtain a single channel. […] Electrical recordings were carried out in 150 mM NaCl, 15 mM Tris.HCl pH 8.0 (AlkB experiments) or 150 mM NaCl, 15 mM Tris.HCl pH 7.5 (DHFR experiments). The temperature of the recording chamber was maintained at 28° C. by water circulating through a metal case in direct contact with the bottom and sides of the chamber.
(§2) Electrical signals from planar bilayer recordings were amplified using an Axopatch 200B patch clamp amplifier (Axon Instruments) and digitized with a Digidata 1440 A/D converter (Axon Instruments). Data were recorded by using the Clampex 10.4 software (Molecular Devices) and the subsequent analysis was carried out with the Clampfit software (Molecular Devices). Electrical recordings were performed in 150 mM NaCl, 15 mM Tris.HCl pH 8.0 (AlkB) or pH 7.5 (DHFR) by applying a 2 kHz low-pass Bessel filter and a 10 kHz sampling rate. For further analysis traces were filtered digitally with a Bessel (8-pole) low-pass filter with a 50 Hz cut-off. Residual current values (IRES%) were calculated from blocked pore current values (IB) and open pore current values (IO) as IRES %=100*IB/IO. IB and IO were determined from Gaussian fits to all point current histograms (0.05 pA bin size) for at least 15 individual protein blockades. ΔIRES % values were calculated from IRES % using propagation of errors.
(§3) Current transitions from level 1 were analyzed with the “single-channel search” function in Clampfit. The detection threshold to collect the ligand-induced events for AlkB was set to 4 pA and events shorter than 10 ms were ignored. […] The resulting event dwell times (toff) and the time between events (ton) were binned together as cumulative distributions and fitted to a single exponential to retrieve the ligand-induced lifetimes (τoff) and the ligand-induced event frequencies (f=1/τon). The process of event collection was monitored manually. For AlkB, final values of τon and τoff were based on average values derived from at least 3 single channel experiments at each concentration. Each experiment analysed more than 8 AlkB blockades. At the low ligand concentrations (0.2 mM) about 100 ligand-binding events were measured. Otherwise more than 150 events were collected. […] Subsequently, the ton values were binned together as cumulative distributions and fitted to a single exponential fit to retrieve characteristic τon values. The values for koff represented in FIG. 2b and FIG. 4b were determined by taking the average±standard deviations of 1/toff of at least 3 single channel experiments. The values of the association rate constants (kon) were determined from the slope of the linear regression curves calculated from the dependency of the event frequencies (f=1/τon) on the ligand concentration (OriginLab, FIGS. 2b and 4b). Graphs were made with Origin (OriginLab Corporation) or Clampfit software (Molecular Devices).
9, 872-877; Bleijlevens, B. et al. (2012) Biochem. 2012, 51, 3334-3341].

[2] = molecular target: T2, N120D-AlkB-Fe^++ (Escherichia coli, UniProt P05050, N120D); test: Ligand binding to N120D AlkB mutant confined inside ClyA-AS nanopore; parameters: species or system E. coli; settings: 7.2 mM 2-OG, N=4
T2 construct: additional alanine after the starting methionine (cloning residue, between Met1 and Leu2) (N); Strep-tag via glycine-serine-alanine linker (C); made in house; host or cells: pT7-SC1 plasmid; expression host not restated for the mutant
T2 sequence (P05050 1-216 N120D): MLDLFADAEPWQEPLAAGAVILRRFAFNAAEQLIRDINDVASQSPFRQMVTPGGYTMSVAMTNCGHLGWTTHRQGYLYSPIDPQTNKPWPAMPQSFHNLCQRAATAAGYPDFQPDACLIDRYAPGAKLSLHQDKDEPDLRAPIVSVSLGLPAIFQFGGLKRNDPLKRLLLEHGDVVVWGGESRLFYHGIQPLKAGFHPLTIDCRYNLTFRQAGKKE

[3] = molecular target: T3, DHFRtag:MTX (Escherichia coli, UniProt P0ABQ4, C152S/C85A); test: Ligand binding to DHFRtag:MTX complex confined inside ClyA-AS nanopore, single-channel recording; parameters: species or system E. coli
T3 construct: Met-Ala-Ser-Ala (N); made in house; host or cells: E. cloni EXPRESS BL21(DE3) E. coli
T3 sequence (P0ABQ4 1-159 C85A/C152S): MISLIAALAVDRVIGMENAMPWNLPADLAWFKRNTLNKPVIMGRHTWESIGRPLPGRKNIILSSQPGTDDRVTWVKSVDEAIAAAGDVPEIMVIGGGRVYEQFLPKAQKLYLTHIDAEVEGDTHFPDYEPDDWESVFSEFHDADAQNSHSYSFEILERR
Method: as §1, §2, §3

[4] = test system: Type I ClyA-AS nanopore; test: Current blockades from capture of protein adaptors by Type I ClyA-AS nanopore; parameters: species or system S. Typhi; settings: ~4 nM cis, −60 mV
Method: The applied potential refers to the potential of the trans electrode. ClyA-AS nanopores were inserted into lipid bilayers from the cis compartment, which was connected to the ground electrode. The two compartments were separated by a 25 μm thick polytetrafluoroethylene film (Goodfellow Cambridge Limited) containing an orifice of ˜100 μm in diameter. The aperture was pretreated with ˜5 μl of 10% hexadecane in pentane and a bilayer was formed by the addition of ˜10 μL of 1,2-diphytanoyl-sn-glycero-3-phosphocholine (DPhPC) in pentane (10 mg/mL) to both electrophysiology chambers. […]
as §2, with “Electrical recordings were performed in 150 mM NaCl, 15 mM Tris.HCl pH 8.0 (AlkB) or pH 7.5 (DHFR) by applying a 2 kHz low-pass Bessel filter and a 10 kHz sampling rate. For further analysis traces were filtered digitally with a Bessel (8-pole) low-pass filter with a 50 Hz cut-off.” left out

| Molecule | L2B ΔIRES % (ligand-induced current enhancement from L2) [1] | mean duration (toff) of ligand-induced events [1] | koff −60 mV [1] | kon −60 mV [1] | other results |
| --- | --- | --- | --- | --- | --- |
| O=C(O)CCC(=O)O [SUC, succinate] | +2.1 ± 1.0% | 61 ± 11 ms | 16.6 ± 2.6 s⁻¹ | 9.2 ± 1.3 × 10^2 s^−1 M^−1 |  |
| O=C(O)CCC(=O)C(=O)O [2-OG, 2-oxoglutarate] | +1.7 ± 1.2% | 1700 ± 500 ms | 0.66 ± 0.33 s⁻¹ | 1.8 ± 0.3 × 10^3 s^−1 M^−1 | current transitions in N120D-AlkB-Fe++ blockades [2]: did not induce current transitions |
| NC(=O)c1ccc[n+]([C@@H]2O[C@H](COP(=O)([O-])OP(=O)(O)OC[C@H]3O[C@@H](n4cnc5c(N)ncnc54)[C@H](OP(=O)(O)O)[C@@H]3O)[C@@H](O)[C@H]2O)c1 [NADP+] |  |  |  |  | DHFRtag:MTX blockades not responding to the ligand ([3]; NADP+ added in trans): Approximately 45%; τM:N+ (dwell of NADP+ events) ([3]; −90 mV, NADP+ trans): 102 ± 11 ms; koff −90 mV ([3]; −90 mV, pH 7.5, 28° C.): 10 ± 1 s⁻¹; kon −90 mV ([3]; −90 mV, pH 7.5, 28° C.): 2.1 ± 0.3 × 10^6 s^−1 M^−1; L2B ΔIRES % ([3]; −90 mV, pH 7.5, 28° C., ligand trans, from L2): +4.7 ± 0.9% |
| AlkB-Fe^++ (protein, UniProt P05050 1-216, looked up, Fe2+ bound) Alpha-ketoglutarate-dependent …: MLDLFADAEPWQEPLAAGAVILRRFAFNAAEQLIRDINDVASQSPFRQMVTPGGYTMSVAMTNCGHLGWTTHRQGYLYSPIDPQTNKPWPAMPQSFHNLCQRAATAAGYPDFQPDACLINRYAPGAKLSLHQDKDEPDLRAPIVSVSLGLPAIFQFGGLKRNDPLKRLLLEHGDVVVWGGESRLFYHGIQPLKAGFHPLTIDCRYNLTFRQAGKKE |  |  |  |  | AlkB-Fe++ blockades not showing ligand-induced transitions [1]: About 30%; time trapped inside the nanopore [4]: several minutes |

— patent publication US11169138B2, “Nanopores with internal protein adaptors” (priority 2015, dated 2021)
